Here are results for eight compounds from US20230136215A1, “PRODUCTION OF DUNALIELLA” (University of Greenwich, priority 2017, published 2023).

For one data set, the system named is D. salina cultures. In words: D. salina cultures treated with herbicides; carotenoid contents determined by HPLC. In kind it is cell-based, Dunaliella salina. The conditions noted are these: for content of phytoene per cell: continuous white LED light ~200 μmol m^−2 s^−1, 25° C.; for yield of phytoene, red light versus white light: herbicide-treated cultures, Table 4; for 9-cis/all-trans β-carotene ratio: norflurazon-treated.

Data set [1] in a line: Effect of red and blue LED light on all-trans β-carotene dissolved in chloroform. In kind it is physicochemical. The conditions noted are these: 2.4 μM in chloroform, 24 h, 25° C. The method, then: FIGS. 10A-10C: Effect of red and blue LED light on all-trans β-carotene. (FIG. 10A) Red light under nitrogen; (FIG. 10B) Red light in air; (FIG. 10C) Blue light in air. All-trans-β-carotene (Sigma) was dissolved in chloroform to a final concentration of 2.4 μM and vials were thoroughly flushed with either nitrogen or air, sealed and incubated for 24 h at 25° C. under LED lights. (FIG. 10A) red, nitrogen; (FIG. 10B), red, air; (FIG. 10C) blue, nitrogen or air. The same results as (FIG. 10A) were obtained for dark under nitrogen or air. […] In (FIG. 10A) (red light under nitrogen) no reaction of β-carotene was detected.

Where [2] appears, read: 20 μM chlorpropham, 6-days cultivation in white LED light.
[3] abbreviates: 20 μM chlorpropham, white light 1500 μmol m^−2 s^−1, 4 days' cultivation.
Setting [4] is: Table 5 (red light), 1500 μmol m^−2 s^−1, 96 h.
Setting [5] is: Table 5, red light, 200 μmol m^−2 s^−1, 144 h.
[6] abbreviates: red light 200 pmol m^−2 s^−1 continuous, 48 h, chlorpropham 10 μM, Norflurazon 5 µM.
Setting [7] is: red light 200 μmol m^−2 s^−1 continuous, 48 h, chlorpropham 10 μM, Norflurazon 5 µM.
Setting [8] is: white LED light 200 pmol m^−2 s^−1 continuous, 48 h, chlorpropham 10 μM, Norflurazon 5 µM.
The mark [9] stands for this setting: white LED light 200 μmol m^−2 s^−1 continuous, 48 h, chlorpropham 10 μM, Norflurazon 5 µM.
Where [10] appears, read: Table 5, red light, 200 μmol m^−2 s^−1, 48 h.

In the case of `O=C(O)CNCP(=O)(O)O` [glyphosate, 2-(phosphonomethylamino)acetic acid], the “content of phytoene per cell” value in the data set with D. salina cultures was “increased”.

With `CC(C)OC(=O)Nc1cccc(Cl)c1` [chlorpropham, isopropyl N-(3-chlorophenyl) carbamate], in the data set with D. salina cultures (setting [2]), the “final phytoene concentration in the cultures” value turned out to be 3.55 ± 0.11 mg/L and the “phytoene content in cells” value amounted to 25.76±1.58 pg cell^−1. Also, the “increase of phytoene content in cells” value in the data set on D. salina cultures (20 μM chlorpropham, 6-days cultivation in white LED light, compared to untreated cells) was “ca. 50 fold”. Besides, the “increase of final phytoene concentration in the cultures” value in the data set on D. salina cultures (20 μM chlorpropham, 6-days cultivation in white LED light, compared to untreated cultures) is given as 10 fold. Moreover, in the data set on D. salina cultures (setting [3]), the phytoene content result was “above 30 pg cell^−1” and the phytoene yield worked out at 8.2 mg/L. In the data set on D. salina cultures (setting [4]), the “9-cis β-carotene” value is 6.96 ± 0.74 pg cell^−1, the 9cis of total was found to be 12%, the “All-trans α-carotene” value is on record as 0.44 ± 0.07 pg cell^−1 and the “All-trans β-carotene” value is recorded as 17.34 ± 0.97 pg cell^−1. In addition, in the data set on D. salina cultures (setting [4]), the Phytoene turned out to be 30.62 ± 1.31 pg cell^−1, the Phytofluene is given as 1.87 ± 0.12 pg cell^−1, the “Total carotenoids (sum)” value came to 58.61 pg cell^−1 and the lutein is 0.61 ± 0.03 pg cell^−1. In the data set on D. salina cultures (setting [4]), the “phytoene + phytofluene of total” value was 55% and the zeaxanthin is given as 0.77 ± 0.02 pg cell^−1. Further, in the data set with D. salina cultures (setting [5]), the “9-cis β-carotene” value is given as 31.3 ± 2.49 pg cell^−1, the 9cis of total is given as 29%, the “All-trans α-carotene” value worked out at 1.4 ± 0.13 pg cell^−1 and the “All-trans β-carotene” value is 18.34 ± 1.45 pg cell^−1. Further, in the data set on D. salina cultures (setting [5]), the Phytoene was found to be 51.88 ± 4.53 pg cell^−1, the Phytofluene is reported as 3.02 ± 0.29 pg cell^−1, the “Total carotenoids (sum)” value amounted to 108.48 pg cell^−1 and the lutein stood at 1.21 ± 0.09 pg cell^−1. For the same compound, in the data set on D. salina cultures (setting [5]), the “phytoene + phytofluene of total” value came out at 51% and the zeaxanthin amounted to 1.33 ± 0.10 pg cell^−1. Besides, in the data set on D. salina cultures (compared to untreated cultures), the “increase of cellular content of colorless carotenoids” value was “more than 30 fold” and the “increase of yield of the colorless carotenoids” value is given as “more than 10 fold”. For the same compound, the “yield of phytoene, red light versus white light” value with D. salina cultures (48 h) was “more than doubled”. Further, the Cell density result in the data set on D. salina cultures (once chlorpropham was added) is recorded as “stopped increasing”. Moreover, in the data set with D. salina cultures (setting [6]), the “9-cis β-carotene” value is 14.35 ± 1.24 pg cell^−1 and the zeaxanthin is on record as 1.05 ± 0.06 pg cell^−1. Besides, in the data set with D. salina cultures (setting [7]), the 9cis of total worked out at 39%, the Phytoene amounted to 10.56 ± 1.53 pg cell^−1, the Phytofluene was found to be 1.58 ± 0.17 pg cell^−1 and the “Total carotenoids (sum)” value is 36.7 pg cell^−1. For the same compound, in the data set on D. salina cultures (setting [7]), the lutein is on record as 0.74 ± 0.05 pg cell^−1 and the “phytoene + phytofluene of total” value worked out at 33%. For the same compound, the “phytoene contents under red light versus white light” value with D. salina cultures (same concentration of chlorpropham treatment) is “higher”. For the same compound, the “optimal concentration range of chlorpropham added to the cultures (phytoene production)” value in the data set with D. salina cultures (tested 0, 0.1, 1, 10, 20, 50 and 100 μM, 25° C.) fell in the range of 10 to 50 µM. In the data set with D. salina cultures (setting [8]), the “9-cis β-carotene” value amounted to 13.35 ± 1.88 pg cell^−1 and the zeaxanthin stood at 0.84 ± 0.09 pg cell^−1. In addition, in the data set with D. salina cultures (setting [9]), the 9cis of total is 43%, the Phytoene was found to be 4.41 ± 0.65 pg cell^−1, the Phytofluene came out at 0.67 ± 0.09 pg cell^−1 and the “Total carotenoids (sum)” value was 30.99 pg cell^−1. Also, in the data set with D. salina cultures (setting [9]), the lutein is listed as 0.83 ± 0.13 pg cell^−1 and the “phytoene + phytofluene of total” value came out at 16%.

As to `CCNC(=O)[C@@H](C)OC(=O)Nc1ccccc1` [carbetamide, (R)-1-(ethylcarbamoyl)ethyl carbanilate], the “content of phytoene per cell” value with D. salina cultures was “increased”.

With `CC1=C(/C=C/C(C)=C/C=C/C(C)=C/C=C/C=C(C)/C=C/C=C(C)/C=C/C2=C(C)CCCC2(C)C)C(C)(C)CCC1` [all-trans β-carotene, all-trans-β-carotene], the “destruction of all-trans β-carotene” value in data set [1] (blue light, nitrogen or air) was “fully destroyed”; in data set [1] (red light under air), 40%. Also, the “reaction of β-carotene” value in data set [1] (red light under nitrogen) is “no reaction”.

In the case of `O=C(Nc1ccc(F)cc1F)c1cccnc1Oc1cccc(C(F)(F)F)c1` [Diflufenican, N-(2,4-difluorophenyl)-2-[3-(trifluoromethyl)phenoxy]pyridine-3-carboxamide], in the data set on D. salina cultures (setting [10]), the “9-cis β-carotene” value came to 10.84 ± 0.19 pg cell^−1, the 9cis of total was 38%, the “All-trans α-carotene” value was found to be 0.34 ± 0.00 pg cell^−1 and the “All-trans β-carotene” value is 2.98 ± 0.11 pg cell^−1. In the data set with D. salina cultures (setting [10]), the Phytoene is 12.78 ± 0.40 pg cell^−1, the Phytofluene worked out at 0.01 ± 0.00 pg cell^−1, the “Total carotenoids (sum)” value worked out at 28.64 pg cell^−1 and the lutein was 0.56 ± 0.01 pg cell^−1. In the data set with D. salina cultures (setting [10]), the “phytoene + phytofluene of total” value stood at 45% and the zeaxanthin is given as 1.13 ± 0.06 pg cell^−1.

For `CNc1cnn(-c2cccc(C(F)(F)F)c2)c(=O)c1Cl` [Norflurazon, 4-chloro-5-methylamino-2-(3-trifluoromethylphenyl)-pyridazin-3(2H)one], the “yield of phytoene, red light versus white light” value in the data set with D. salina cultures (48 h) is listed as “more than doubled”. Further, the “amount of phytoene produced under red light compared to white light” value in the data set on D. salina cultures (norflurazon 5 and 50 μM, 200 μmol m^−2 s^−1, 25° C., 48 h) is “significantly higher”. Besides, the “9-cis/all-trans β-carotene ratio” value in the data set on D. salina cultures (red LED light 200 μmol m^−2 s^−1, 25° C., 48 h) amounted to 3.9. Moreover, the “9-cis/all-trans β-carotene ratio” value with D. salina cultures (white LED light 200 μmol m^−2 s^−1, 25° C., 48 h) was 1.8. Moreover, in the data set with D. salina cultures (setting [6]), the “9-cis β-carotene” value is recorded as 11.89 ± 0.83 pg cell^−1 and the zeaxanthin is on record as 1.12 ± 0.06 pg cell^−1. In the data set with D. salina cultures (setting [7]), the 9cis of total was determined as 38%, the Phytoene is listed as 14.42 ± 0.95 pg cell^−1, the Phytofluene is reported as 0.02 ± 0.00 pg cell^−1 and the “Total carotenoids (sum)” value is reported as 31.55 pg cell^−1. For the same compound, in the data set with D. salina cultures (setting [7]), the lutein came out at 0.62 ± 0.02 pg cell^−1 and the “phytoene + phytofluene of total” value was 46%. In the data set on D. salina cultures (setting [8]), the “9-cis β-carotene” value was 7.65 ± 0.67 pg cell^−1 and the zeaxanthin is 0.80 ± 0.07 pg cell^−1. Besides, in the data set with D. salina cultures (setting [9]), the 9cis of total is reported as 37%, the Phytoene is reported as 7.07 ± 0.36 pg cell^−1, the Phytofluene came out at 0.01 ± 0.00 pg cell^−1 and the “Total carotenoids (sum)” value was 20.6 pg cell^−1. Also, in the data set with D. salina cultures (setting [9]), the lutein was found to be 0.52 ± 0.02 pg cell^−1 and the “phytoene + phytofluene of total” value is listed as 34%.

On to `Nc1cc(Cl)nc(C(=O)O)c1Cl` [aminopyralid, 4-amino-3,6-dichloropyridine-2-carboxylic acid], for which the “content of phytoene per cell” value with D. salina cultures is “increased”.

On to `COc1nc(C)nc(NC(=O)NS(=O)(=O)c2ccccc2Cl)n1` [chlorsulfuron, 1-(2-chlorophenyl)sulfonyl-3-(4-methoxy-6-methyl-1,3,5-triazin-2-yl)urea], for which the “content of phytoene per cell” value in the data set on D. salina cultures is on record as “increased”.
